Laboratory results published in BindingDB's records for doi:10.1016/j.bmcl.2019.126715 (Merck, 2020).

Molecular target: Proto-oncogene tyrosine-protein kinase Src (Homo sapiens) (UniProt P12931)
Assay: Inhibition of recombinant full length human SRCN1 expressed in baculovirus expression system using tyrosine-2 peptide as substrate incubated for 60 mins in presence of ATP by Z'-LYTE assay

Proto-oncogene tyrosine-protein kinase Src (Homo sapiens), sequence (P12931 whole entry, looked up): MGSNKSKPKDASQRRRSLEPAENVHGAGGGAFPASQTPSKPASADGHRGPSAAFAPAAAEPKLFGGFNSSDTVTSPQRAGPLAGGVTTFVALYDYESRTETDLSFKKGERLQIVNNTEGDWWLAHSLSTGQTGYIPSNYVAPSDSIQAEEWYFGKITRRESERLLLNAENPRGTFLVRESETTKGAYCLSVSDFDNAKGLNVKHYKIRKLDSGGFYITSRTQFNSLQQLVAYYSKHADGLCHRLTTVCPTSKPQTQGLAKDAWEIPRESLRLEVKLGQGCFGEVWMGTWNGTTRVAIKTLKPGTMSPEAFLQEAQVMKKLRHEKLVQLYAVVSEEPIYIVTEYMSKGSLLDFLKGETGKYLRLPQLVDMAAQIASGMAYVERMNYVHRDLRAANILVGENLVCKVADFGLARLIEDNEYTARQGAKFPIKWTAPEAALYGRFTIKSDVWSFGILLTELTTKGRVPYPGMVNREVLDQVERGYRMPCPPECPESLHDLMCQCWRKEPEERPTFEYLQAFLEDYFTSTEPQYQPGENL

C[C@@H]1C[C@H]1C(=O)N1CCN(c2cnc(C#N)c(-c3cnn(C)c3)n2)C[C@H]1C
IC50: > 100 µM
